ChEMBL document CHEMBL1157457, “Alstilobanines A-E, new indole alkaloids from Alstonia angustiloba” (2008)

What follows are compounds tested on Aorta (assay: Vasorelaxation activity against phenylephrine-stimulated contraction in Wistar rat thoracic aorta at 30 uM).
Assay type: functional
Set-up: scale not given: the % may be the effect or the level left
In the case of `COC(=O)[C@@]1(c2cc3ccccc3[nH]2)COCC=C2CN(C)CC[C@@H]21` [6,7-SECO-ANGUSTILOBINE B], the Activity is reported as 7%. Work on `COC(=O)[C@]1(CO)c2[nH]c3ccccc3c2[C@@H](C)[C@]2(O)CNCC[C@@H]21` [ALSTILOBANINE A] yielded an Activity of 44.3%. `COC(=O)[C@@]12COCC[C@H]3[C@@H]1CC[N@@+](C)([O-])[C@H]3c1c2[nH]c2ccccc12` [ALSTILOBANINE B] gave an Activity of 21.2%. `COC(=O)[C@@]12COCC[C@@H]3[C@@H](NCC[C@@H]31)c1c2[nH]c2ccccc12` [ALSTILOBANINE C] was tested, and the Activity was 28%. In the case of `COC(=O)[C@@]1(c2cc3ccccc3[nH]2)COCC=C2C[N@+](C)([O-])CC[C@@H]21` [ALSTILOBANINE D], the Activity is reported as 10%. In the case of `COC(=O)[C@@]12COC[C@H](c3c1[nH]c1ccccc31)[C@]1(O)CNCC[C@@H]12` [ALSTILOBANINE E], the Activity is reported as 6.8%. `O=C(O)[C@@]12COCC=C3CN(CC[C@@H]31)Cc1c2[nH]c2ccccc12` [ALSTONAMIC ACID] showed an Activity of 35%. With `COC(=O)[C@]12COCC[C@@H]3[C@H](c4c1[nH]c1ccccc41)N(C)CC[C@@H]32` [UNDULIFOLINE] the Activity was 33.3%.
